According to paper PMC9254149 (RSC Advances, 2022):

What was measured:
Type in all cases: cell-based, human
[1] = Cell viability by CCK-8 method; details: human, HepG2 cells
HepG2 cells = experiment: Cell viability by CCK-8 method; details: Homo sapiens, HepG2, 24 h, read-out: IC50 (cell viability)
IR-HepG2 cells = experiment: Glucose consumption in IR-HepG2 cells; details: 24 h

IC50 (HepG2 cells) [µM] | Structure (SMILES) | viability at 24 h, 10 µM [1] [%] | viability at 24 h, 20 µM [1] [%] | viability at 24 h, 30 µM [1] [%] | viability at 24 h, 40 µM [1] [%] | viability at 24 h, 50 µM [1] [%] | Glucose consumption (IR-HepG2 cells; 2.5 μM) [mM] | Glucose consumption (IR-HepG2 cells; 5.0 μM) [mM] | Glucose consumption (IR-HepG2 cells; 10.0 μM) [mM] | Glucose consumption (IR-HepG2 cells; 12.5 μM) [mM] | Glucose consumption (IR-HepG2 cells; 15 μM) [mM]
34 | CC(C)=CCCC(C)(O)C(O)CCC(C)CCO (stereo not drawn) [Compound 3, 2,6,10-trimethyl-6,7,12-trihydroxy-dodec-2-ene] | 94.8 ± 1.94 | 83.5 ± 3.68 | 60.3 ± 3.33 | 36.3 ± 1.62 | 33.4 ± 1.9 | 2.06 ± 1.27 | 2.43 ± 0.67 | 2.66 ± 0.56 | 2.86 ± 0.71 | 2.44 ± 0.60
> 50 | C[C@@H]1O[C@@H](O[C@H]2[C@H](O[C@H]3CC[C@@]4(C)[C@@H](CC[C@]5(C)[C@@H]4CC=C4[C@@H]6CC(C)(C)CC[C@]6(C(=O)O)CC[C@]45C)[C@]3(C)CO)OC[C@H](O)[C@@H]2O)[C@H](O)[C@H](O)[C@H]1O [Compound 5, α-hederin] | 98.57 ± 0.57 | 93.4 ± 1.23 | 89.4 ± 1.16 | 76.1 ± 1.73 | 73.3 ± 2.58 | 6.31 ± 0.96 | – | 7.75 ± 0.84 | 8.97 ± 0.37 | 9.99 ± 0.95
